Laboratory results reported in patent publication US20240352066A1, “ANTIMICROBIAL COMPOUNDS AND THE METHOD OF USE” (priority 2021, published 2024).
≈ marks a conversion by molar mass, not a printed value. Where a SMILES comes first, the peptide text is derived from it. [ ]: non-standard residue; d: D form. N(tridecyl)Gly = CCCCCCCCCCCCCNCC(=O)O; Gly(N-2-aminoethyl) = NCCNCC(=O)O; Gly(N-cHex) = O=C(O)CNC1CCCCC1; Nleu = CC(C)CNCC(=O)O; Nlys = NCCCCNCC(=O)O

How the values were obtained:
C. neoformans = format: cell-based, Cryptococcus neoformans; details: 72 h
[1] = test system: human red blood cells (hRBC); assay: Hemolytic activity against human red blood cells; format: cell-based; details: for hRBC HC10: Example 2, same donor sample of hRBCs
Method: Hemolytic activity was determined using single donor human red blood cells (hRBC). hRBCs were washed with PBS and centrifuged (1000 RPM; 10 minutes) three times, resuspended in PBS and aliquoted (100 μL) in 96 well plates. 2-fold serial dilutions of 10× peptoid final concentrations in PBS were prepared and added to wells in triplicate. PBS was used as a vehicle control and 1% Triton X-100 as a positive control. Plates were incubated for 1 hour (37° C.; 5% CO2) then centrifuged (1000 RPM; 10 minutes) and supernatant was diluted 1:20 into PBS in a new 96-well plate. Plates were read on a SpectraMax M5 plate reader (Abs. 405 nm). Percent hemolysis was determined by the following equation: […]
GraFit was used to determine concentrations at 50% hemolytic activity (HC50) and the Hill coefficient (H). Hemolytic activity at 10% (HC10) was then determined by the following equation: […]
The hemolytic activity of select peptoids was determined as done previously (Green et al. ACS medicinal chemistry letters 12 9, 1470-1477 (2021); Middleton et al. Bioorganic & medicinal chemistry letters 28 22, 3514-3519 (2018)). Selected peptoids were prepared in 2-fold serial dilutions in PBS at the desired concentrations. Human red blood cells (hRBCs, 9 mL) were centrifuged at 1000 rpm for 10 minutes, and the supernatant was removed and discarded. A 10 mL aliquot of PBS was used to resuspend the hRBCs which were centrifuged again at 1000 rpm for 10 minutes. This PBS wash was completed two more times for a total of three washes. A 9 mL aliquot of PBS was added to the hRBCs, and 100 μL of cell solution was added to individual wells of a 96-well plate. Peptoid solutions (11.1 μL) were added to the appropriate wells in triplicate. A vehicle control of PBS and positive control of 1% Triton X-100 were added to wells in triplicate.
The plate was incubated at 37° C. for 1 hour and centrifuged at 1000 rpm for 10 minutes. For each well, 5 μL of supernatant was transferred to 95 μL of PBS in a new 96-well plate. The absorbance at 405 nm was measured using a SpectraMax M5 Plate Reader, and the percent hemolysis was calculated as follows: […]

Row | SMILES | C. neoformans MIC (C. neoformans) [µg/mL] | hRBC HC10 [1] [µg/mL] | MIC C. neoformans (C. neoformans) [µg/mL] | HC10 hRBC ([1]; Example 1, 10% lysis, 1 hour) [µg/mL]
1 | CCCCCCCCCCCCCNCC(=O)N(CC(=O)N(CCCCN)CC(=O)N(CCN)CC(=O)N(CC(N)=O)CC(C)C)CC(C)C [Compound 9] (H-[N(tridecyl)Gly][Nleu][Nlys][Gly(N-2-aminoethyl)][Nleu]-NH2) | 3.13 | 130 ± 45 |  | 
2 | CCCCCCCCCCCCCNCC(=O)N(CC(=O)N(CCCCN)CC(=O)N(CCN)CC(=O)N(CC(N)=O)C1CCCCC1)C1CCCCC1 [RMG8-8, Ntri-Ncha-Nlys-Nae-Ncha] (H-[N(tridecyl)Gly][Gly(N-cHex)][Nlys][Gly(N-2-aminoethyl)][Gly(N-cHex)]-NH2) |  | 75 ± 31 | 1.6 (≈ 2.1 µM) | 77
